Experimental data published in patent US12497408B2, “Tetracyclic compounds and methods for the treatment of Zika virus infection” (priority 2021, dated 2025).

Test system: ZIKV
Experiment: ZIKV reporter virus-based antiviral screening on Huh7 cells
Assay type: cell-based, Zika virus
Conditions: Huh7 cells infected with recombinant luciferase reporter ZIKV (MOI about 0.1), 48 hrs, luciferase signal; read-out: EC50
From the text: Protocol for ZIKV reporter virus-based antiviral screening on Huh7 cells:
• Human hepatocyte-derived carcinoma cell line (Huh7) 2. Reagents • ViviRen™ Live Cell Substrate (Promega, Cat #E6492) or Nano Glo assay system (Promega: N1130) • White opaque 96-well TC-treated microplates (Corning, Cat #3916) • 96-well Clear V-Bottom TC-treated Microplate (Corning, Cat #3894) • Complete cell culture media: DMEM (Gibco, Cat #10569) supplemented with 10% FBS (HyClone, Cat #SH30071.03IH25-40)+1% MEM Non-Essential Amino Acids Solution 100×(Gibco, Cat #11140050)+1% Penicillin-Streptomycin (10,000 U/mL) (Gibco, Cat #15140122). • Assay media: DMEM media (Gibco, Cat #31053028) supplemented with 2% FBS, 2% GlutaMAX™ Supplement (Gibco Cat #35050061), 1% Sodium Pyruvate solution (Gibco, Cat #11360070), 1% MEM Non-Essential Amino Acids Solution 100× and 1% Penicillin-Streptomycin (10,000 U/mL). • Trypsin-EDTA solution (Gibco, Cat #25200056) 3. Virus • Recombinant ZIKV strain with Renilla luciferase gene (strain FSS-Rlu) or Nano luciferase gene (Strain PRV-Nano, Dakar-Nano) 4. Instruments • BioTek Cytation 5 or other plate-readers for chemiluminescence detection model. • Eppendorf plate centrifuge • Plate shaker • Eppendorf multichannel pipettes Procedures Day 1: Preparation of Cells • Human hepatocyte-derived carcinoma cell line (Huh7) cells were detached from a T-175 flask by using a Trypsin-EDTA solution. The detached cells were suspended in complete culture media in a sterile 50-ml conical tube. • The 50-ml conical tube was centrifuged at 1200×rpm for 3 min at room temperature. • The cells were resuspended in assay media. The cell numbers were counted, and the cells diluted to a density of 3×10^5 cells/ml. • The cells were plated at 50 μl cells per well in White opaque 96-well plates (assay plates). Gently shake the plates to ensure cells to attach to the plate evenly. • The plated cells were incubated in a humidified incubator (37° C. with 5% CO2). Day 2: Infection • 1) Nine serial (2-fold or 3-fold) concentrated compounds were prepared using 90% DMSO solution and DMSO controls in a clear V-bottom 96-well plate (compound plate). • For example:
• 2) The reporter virus stock was diluted to a concentration of 3×10^4 FFU (FFU: focus-forming unit)/ml using the assay media. 200 μl diluted virus per well was aliquoted into a clear V-bottom 96-well plate (mixing plate). • 3) 1 μl above 400×concentrated compound dilutions was added from the compound plate to each well of the mixing plate. The plates were shaken on a plate shaker for 5 min. • 4) 50 μl compound-virus mixture was added into each well of the assay plates (the MOI is about 0.1). The plates were shaken gently by mixing the virus evenly. • An example of the format for assay plate:
• control. • 5) The plates were centrifuged at 1000 rpm for 15 s. • 6) The plates were incubated at 37° C. with 5% CO2 in a humidified incubator for 48 hrs. Day 4: Read Luciferase Signals • 7) The ViviRen™ Live Cell Substrate was diluted in assay media for 3000× folds. 25 μl of diluted substrates was added into each well of the assay plates. • For Nano-Glo assay system, 50 μl diluted substrates (50×fold diluted from the stock in assay buffer) were added. • 8) The plates were incubated at room temperature for 5 min. • 9) Optimally, cell viability is measured using the Promega Cell-titer Glo kit (only used when ZIKV-Rlu was used for infection). • 10) Luciferase signals were read using the Cytation 5 with gain value of 120-150. Data Analysis • a. The luciferase signals from DMSO-treated groups (un-treated controls) were set as 100%. The relative luciferase signals were obtained by normalizing the luciferase signals from each dilution-treated group to that of the controls. • b.

| SMILES | EC50 |
| --- | --- |
| COC(=O)N[C@H](C(=O)N1C[C@@H](F)C[C@H]1c1nc(Cl)c(-c2cc3c4c(c2)OCc2cc(-c5[nH]c([C@@H]6C[C@H](F)CN6C(=O)[C@@H](NC(=O)OC)C(C)(C)C(F)(F)F)nc5Cl)cc(c2-4)OC3)[nH]1)C(C)(C)C(F)(F)F [Compound 52, dimethyl ((2S,2′S)-((3S,3′S,5S,5′S)-((5,10-dihydrochromeno[5,4,3-cde]chromene-2,7-diyl)bis(4-chloro-1H-imidazole-5,2-diyl))bis(3-fluoropyrrolidine-5,1-diyl))bis(4,4,4-trifluoro-3,3-dimethyl-1-oxobutane-l,2-diyl))dicarbamate] | 103 nM |

Same assay, conditions: Zika virus, Huh-7, 48 h, Huh7 cells infected with recombinant luciferase reporter ZIKV (MOI about 0.1), luciferase signal

| SMILES | EC50 |
| --- | --- |
| CC[C@@H](C)[C@H](NC(=O)OC)C(=O)N1CC2(CC2)C[C@H]1c1nc(Cl)c(-c2cc3c4c(c2)OCc2cc(-c5[nH]c([C@@H]6CC7(CC7)CN6C(=O)[C@@H](NC(=O)OC)[C@H](C)CC)nc5C(C)C)cc(c2-4)OC3)[nH]1 [Compound 83, methyl ((2S,3R)-1-((S)-6-(5-(7-(4-chloro-2-((S)-5-((methoxycarbonyl)-L-alloisoleucyl)-5-azaspiro[2.4]heptan-6-yl)-1H-imidazol-5-yl)-5,10-dihydrochromeno[5,4,3-cde]chromen-2-yl)-4-isopropyl-1H-imidazol-2-yl)-5-azaspiro[2.4]heptan-5-yl)-3-methyl-1-oxopentan-2-yl)carbamate] | 2.4 nM |
| COC(=O)N[C@H](C(=O)N1CCC[C@H]1c1nc(C(C)C)c(-c2cc3c4c(c2)OCc2cc(-c5[nH]c([C@@H]6CCCN6C(=O)[C@@H](NC(=O)OC)C(C)C)nc5C(C)C)cc(c2-4)OC3)[nH]1)C(C)C [Compound 19, dimethyl ((2S,2′S)-((2S,2′S)-((5,10-dihydrochromeno[5,4,3-cde]chromene-2,7-diyl)bis(4-isopropyl-1H-imidazole-5,2-diyl))bis(pyrrolidine-2,1-diyl))bis(3-methyl-1-oxobutane-1,2-diyl))dicarbamate] | 15.8 nM |
| COC(=O)N[C@H](C(=O)N1CC(C)(C)C[C@H]1c1nc(Cl)c(-c2cc3c4c(c2)OCc2cc(-c5[nH]c([C@@H]6CC(C)(C)CN6C(=O)[C@@H](NC(=O)OC)C(C)C)nc5Cl)cc(c2-4)OC3)[nH]1)C(C)C [Compound 7, dimethyl ((2S,2′S)-((5S,5′S)-((5,10-dihydrochromeno[5,4,3-cde]chromene-2,7-diyl)bis(4-chloro-1H-imidazole-5,2-diyl))bis(3,3-dimethylpyrrolidine-5,1-diyl))bis(3-methyl-1-oxobutane-1,2-diyl))dicarbamate] | 4.2 nM |
| COC(=O)N[C@H](C(=O)N1C[C@@H](C)C[C@H]1c1nc(C(C)C)c(-c2cc3c4c(c2)OCc2cc(-c5[nH]c([C@@H]6C[C@H](C)CN6C(=O)[C@@H](NC(=O)OC)C(C)C)nc5C(C)C)cc(c2-4)OC3)[nH]1)C(C)C [Compound 72, dimethyl ((2S,2′S)-((3S,3′S,5S,5′S)-((5,10-dihydrochromeno[5,4,3-cde]chromene-2,7-diyl)bis(4-isopropyl-1H-imidazole-5,2-diyl))bis(3-methylpyrrolidine-5,1-diyl))bis(3-methyl-1-oxobutane-1,2-diyl))dicarbamate] | 11.8 nM |
| COC(=O)N[C@H](C(=O)N1[C@@H](C)CC[C@H]1c1nc(C(C)C)c(-c2cc3c4c(c2)OCc2cc(-c5[nH]c([C@@H]6CC[C@H](C)N6C(=O)[C@@H](NC(=O)OC)C(C)C)nc5C(C)C)cc(c2-4)OC3)[nH]1)C(C)C [Compound 40, dimethyl ((2S,2′S)-((2S,2′S,5S,5′S)-((5,10-dihydrochromeno[5,4,3-cde]chromene-2,7-diyl)bis(4-isopropyl-1H-imidazole-5,2-diyl))bis(2-methylpyrrolidine-5,1-diyl))bis(3-methyl-1-oxobutane-1,2-diyl))dicarbamate] | 5.6 nM |
| COC(=O)N[C@H](C(=O)N1CC(F)(F)C[C@H]1c1nc(Cl)c(-c2cc3c4c(c2)OCc2cc(-c5[nH]c([C@@H]6CC(F)(F)CN6C(=O)[C@@H](NC(=O)OC)C(C)(C)C(F)(F)F)nc5Cl)cc(c2-4)OC3)[nH]1)C(C)(C)C(F)(F)F [Compound 58, dimethyl ((2S,2′S)-((5S,5′S)-((5,10-dihydrochromeno[5,4,3-cde]chromene-2,7-diyl)bis(4-chloro-1H-imidazole-5,2-diyl))bis(3,3-difluoropyrrolidine-5,1-diyl))bis(4,4,4-trifluoro-3,3-dimethyl-1-oxobutane-1,2-diyl))dicarbamate] | 11 nM |
| COC(=O)N[C@H](C(=O)N1CCC[C@H]1c1nc(Cl)c(-c2cc3c4c(c2)OCc2cc(-c5[nH]c([C@@H]6CCCN6C(=O)[C@@H](NC(=O)OC)C(C)(C)C)nc5Cl)cc(c2-4)OC3)[nH]1)C(C)(C)C [Compound 26, dimethyl ((2S,2′S)-((2S,2′S)-((5,10-dihydrochromeno[5,4,3-cde]chromene-2,7-diyl)bis(4-chloro-1H-imidazole-5,2-diyl))bis(pyrrolidine-2,1-diyl))bis(3,3-dimethyl-1-oxobutane-1,2-diyl))dicarbamate] | 1.6 nM |
| CC[C@H](C)[C@H](NC(=O)OC)C(=O)N1CC(C)(C)C[C@H]1c1nc(Cl)c(-c2cc3c4c(c2)OCc2cc(-c5[nH]c([C@@H]6CC(C)(C)CN6C(=O)[C@@H](NC(=O)OC)[C@@H](C)CC)nc5Cl)cc(c2-4)OC3)[nH]1 [Compound 8, dimethyl ((2S,2′S,3S,3′S)-((5S,5′S)-((5,10-dihydrochromeno[5,4,3-cde]chromene-2,7-diyl)bis(4-chloro-1H-imidazole-5,2-diyl))bis(3,3-dimethylpyrrolidine-5,1-diyl))bis(3-methyl-1-oxopentane-1,2-diyl))dicarbamate] | 4.4 nM |
| CC[C@H](C)[C@H](NC(=O)OC)C(=O)N1C[C@@H](C)C[C@H]1c1ncc(-c2cc3c4c(c2)OCc2cc(-c5[nH]c([C@@H]6C[C@H](C)CN6C(=O)[C@@H](NC(=O)OC)[C@@H](C)CC)nc5C(C)C)cc(c2-4)OC3)[nH]1 [Compound 70, methyl ((2S,3S)-1-((2S,4S)-2-(4-isopropyl-5-(7-(2-((2S,4S)-1-((methoxycarbonyl)-L-isoleucyl)-4-methylpyrrolidin-2-yl)-1H-imidazol-5-yl)-5,10-dihydrochromeno[5,4,3-cde]chromen-2-yl)-1H-imidazol-2-yl)-4-methylpyrrolidin-1-yl)-3-methyl-1-oxopentan-2-yl)carbamate] | 17.4 nM |
| COC(=O)N[C@H](C(=O)N1CC2(CC2)C[C@H]1c1nc(Cl)c(-c2cc3c4c(c2)OCc2cc(-c5[nH]c([C@@H]6CC7(CC7)CN6C(=O)[C@@H](NC(=O)OC)C(C)(C)C(F)(F)F)nc5Cl)cc(c2-4)OC3)[nH]1)C(C)(C)C(F)(F)F [Compound 61, dimethyl ((2S,2′S)-((6S,6′S)-((5,10-dihydrochromeno[5,4,3-cde]chromene-2,7-diyl)bis(4-chloro-1H-imidazole-5,2-diyl))bis(5-azaspiro[2.4]heptane-6,5-diyl))bis(4,4,4-trifluoro-3,3-dimethyl-1-oxobutane-1,2-diyl))dicarbamate] | 2.8 nM |
| CC[C@H](C)[C@H](NC(=O)OC)C(=O)N1CC2(CC2)C[C@@H]1c1nc(Cl)c(-c2cc3c4c(c2)OCc2cc(-c5[nH]c([C@H]6CC7(CC7)CN6C(=O)[C@@H](NC(=O)OC)[C@@H](C)CC)nc5C(C)C)cc(c2-4)OC3)[nH]1 [Compound 78, methyl ((2S,3S)-1-((R)-6-(5-(7-(4-chloro-2-((R)-5-((methoxycarbonyl)-L-isoleucyl)-5-azaspiro[2.4]heptan-6-yl)-1H-imidazol-5-yl)-5,10-dihydrochromeno[5,4,3-cde]chromen-2-yl)-4-isopropyl-1H-imidazol-2-yl)-5-azaspiro[2.4]heptan-5-yl)-3-methyl-1-oxopentan-2-yl)carbamate] | > 1000 nM |
